Assay results as given in patent EP2608671B1, “COMPOUNDS FOR TREATMENT OF CANCER” (Gtx, Inc., priority 2010, dated 2012).
Counter-ions that a name gives are not always drawn. Like-named read-outs stand apart in the source and are kept apart here.

Assays:
[1] = test system: melanoma cell lines (A375, WM-164, B16-F1) and prostate cancer cell lines (LNCaP, DU 145, PC-3, PPC-1); experiment: SRB cytotoxicity, melanoma and prostate cell panel (averages); type: cell-based
Excerpt: (§1) The only compounds which belong to the invention are the ones falling under the scope of formula (XI).

[2] = test system: A375; experiment: SRB cell growth inhibition (cytotoxicity) assay; type: cell-based, human; conditions: Homo sapiens
[3] = test system: B16-F1; experiment: SRB cell growth inhibition (cytotoxicity) assay; type: cell-based, mouse; conditions: Mus musculus
Excerpt: as §1

[4] = test system: DU 145; experiment: cells; conditions: Homo sapiens
[5] = test system: PPC-1; experiment: cells; conditions: Homo sapiens
[6] = test system: LNCaP; experiment: cells; conditions: Homo sapiens
[7] = test system: PC-3; experiment: cells; conditions: Homo sapiens
Excerpt: as §1
Cells were stained with SRB solution.
Cells. […] Cells between the third and fifth passages were used for experiments.
Cell growth inhibition studies. […] Cells were stained with sulphorhodamine B (SRB) solution.

[8] = test system: WM-164; experiment: SRB cell growth inhibition (cytotoxicity) assay; type: cell-based, human; conditions: Homo sapiens
[9] = A-375, 96 h, read-out: IC50 ± SEM (nM), A375
[10] = B16-F1, read-out: IC50 ± SEM (nM), B16-F1
[11] = DU-145, 96 h, read-out: IC50 ± SEM (nM), DU 145
[12] = Prostate cell, Table 2, read-out: IC50 range over tested melanoma and prostate cell lines
[13] = PPC-1, 96 h, read-out: IC50 ± SEM (nM), PPC-1
[14] = 96 h, read-out: IC50 ± SEM (nM), LNCaP
[15] = PC-3, 96 h, read-out: IC50 ± SEM (nM), PC-3
[16] = A-375, SRB, 48 h, Table 11, read-out: IC50 (nM), A375
[17] = B16-F1, SRB, 48 h, Table 11, read-out: IC50 (nM), B16-F1
[18] = DU-145, 96 h, read-out: IC50 (nM), Du 145
[19] = PPC-1, 96 h, read-out: IC50 (nM), PPC-1
[20] = WM164, SRB, 48 h, Tables 11, 12, read-out: IC50 (nM), WM164
[21] = 96 h, read-out: IC50 (nM), LNCaP
[22] = PC-3, 96 h, read-out: IC50 (nM), PC-3
[23] = A-375, A375 melanoma cells, 48 h, SRB, read-out: IC50 ± SEM (nM) A375
[24] = B16-F1 melanoma cells, 48 h, SRB, read-out: IC50 ± SEM (nM) B16-F1
[25] = DU-145, 96 h, read-out: IC50 ± SEM (nM) Du 145
[26] = WM164 melanoma cells, 48 h, SRB, read-out: IC50 ± SEM (nM) WM164
[27] = Prostate cell, read-out: IC50 (average over cell lines)
[28] = A-375, read-out: IC50 (nM), A375
[29] = B16-F1, read-out: IC50 (nM), B16-F1
[30] = DU-145, read-out: IC50 (nM), DU 145
[31] = PPC-1, read-out: IC50 (nM), PPC-1
[32] = WM164, read-out: IC50 (nM), WM164
[33] = PC-3, read-out: IC50 (nM), PC-3
[34] = A-375, Table 6A, read-out: IC50 (nM), A375
[35] = B16-F1, Table 6A, read-out: IC50 (nM), B16-F1
[36] = WM164, Table 6A, read-out: IC50 (nM), WM164

| Structure (SMILES) | IC50 [5, 13] [nM] | IC50 [6, 14] [nM] | IC50 [7, 15] [nM] | IC50 [2, 23] [nM] | IC50 [3, 24] [nM] | IC50 [4, 25] [nM] | IC50 [8, 26] [nM] | also measured |
| --- | --- | --- | --- | --- | --- | --- | --- | --- |
| COc1cc(C(=NN)c2csc(-c3ccccc3)n2)cc(OC)c1OC (mixture of isomers) [2d] | – | – | – | – | – | – | – | IC50 ([1]; Table 2, read-out: IC50 range over tested melanoma and prostate cell lines): ~1 µM |
| COc1cc(/C(=N/O)c2csc(-c3ccccc3)n2)cc(OC)c1OC [2e-cis, (Z)-(2-Phenylthiazol-4-yl)(3,4,5-trimethoxyphenyl)methanone oxime] | 160 | 189 | 120 | – | – | – | – | IC50 [2, 9]: 200 ± 100 nM; IC50 [3, 10]: 300 ± 100 nM; IC50 [4, 11]: 102 nM; IC50 [1, 12]: 0.1 to 0.3 µM |
| COc1cc(/C(=N\O)c2csc(-c3ccccc3)n2)cc(OC)c1OC [2e-trans, (E)-(2-Phenylthiazol-4-yl)(3,4,5-trimethoxyphenyl)methanone oxime] | > 10000 | > 10000 | > 10000 | – | – | – | – | IC50 [2, 9]: 7800 ± 1200 nM; IC50 [3, 10]: 11400 ± 2100 nM; IC50 [4, 11]: > 10000 nM; IC50 [1, 12]: > 10 µM |
| Cc1ccc(C(=O)c2c[nH]c(-c3ccccc3)n2)cc1 [12ah, (2-phenyl-1H-imidazol-4-yl)(p-tolyl)methanone] | – | – | – | – | – | – | – | IC50 [2, 16]: > 10000 nM; IC50 [3, 17]: > 10000 nM; IC50 [4, 18]: > 10000 nM; IC50 [5, 19]: > 10000 nM; IC50 [8, 20]: > 10000 nM; IC50 [6, 21]: > 10000 nM; IC50 [7, 22]: > 10000 nM |
| Cc1cccc(C(=O)c2c[nH]c(-c3ccccc3)n2)c1 [12ai, (2-phenyl-1H-imidazol-4-yl)(m-tolyl)methanone] | – | – | – | – | – | – | – | IC50 [2, 16]: > 10000 nM; IC50 [3, 17]: > 10000 nM; IC50 [4, 18]: > 10000 nM; IC50 [5, 19]: > 10000 nM; IC50 [8, 20]: > 10000 nM; IC50 [6, 21]: > 10000 nM; IC50 [7, 22]: > 10000 nM |
| COc1ccc(-c2nc(C(=O)c3ccc(F)cc3)cn2C)cc1 [12cba, (4-fluorophenyl)(2-(4-methoxyphenyl)-1-methyl-1H-imidazol-4-yl)methanone] | > 10000 | > 10000 | > 10000 | > 10000 | > 10000 | > 10000 | > 10000 | – |
| COc1cc(C(=O)c2cn(C)c(-c3ccc(C)cc3)n2)cc(OC)c1OC [12dab, (1-methyl-2-(p-tolyl)-1H-imidazol-4-yl)(3,4,5-trimethoxyphenyl)methanone] | 28 | 32 | 46 | – | – | 36 | – | IC50 ([2]; A-375, 48 h, read-out: IC50 ± SEM (nM) A375): 32 nM; IC50 ([3]; B16-F1, 48 h, read-out: IC50 ± SEM (nM) B16-F1): 134 nM; IC50 ([8]; WM164, 48 h, read-out: IC50 ± SEM (nM) WM164): 40 nM |
| Cc1ccc(-c2nc(C(=O)c3ccc(F)cc3)c[nH]2)cc1 [12db-HCl, (4-fluorophenyl)(2-(p-tolyl)-1H-imidazol-4-yl)methanone HCl salt] | – | – | – | – | – | – | – | IC50 ([2]; A-375, 48 h, read-out: IC50 ± SEM (nM) A375, A375 melanoma cells, 48 h, SRB): 108 ± 11 nM; IC50 ([1]; ABI compounds, Tables 11-13, HCl salt, read-out: IC50 (average over cell lines)): 0.172 µM |
| COc1cc(C(=O)c2c[nH]c(-c3ccc(C)cc3)n2)cc(OC)c1O [12dc, (4-hydroxy-3,5-dimethoxyphenyl)(2-(p-tolyl)-1H-imidazol-4-yl)methanone] | 110 | 134 | 127 | 105 | 387 | 174 | 123 | – |
| COc1cc(C(=O)c2c[nH]c(-c3cc(OC)c(OC)c(OC)c3)n2)cc(OC)c1OC [12ea, (3,4,5-trimethoxyphenyl)(2-(3,4,5-trimethoxyphenyl)-1H-imidazol-4-yl)methanone] | > 10000 | > 10000 | > 10000 | – | – | > 10000 | – | IC50 [1, 27]: > 10 µM |
| COc1cc(-c2nc(C(=O)c3ccc(F)cc3)c[nH]2)cc(OC)c1OC [12eb, (4-fluorophenyl)(2-(3,4,5-trimethoxyphenyl)-1H-imidazol-4-yl)methanone] | > 10000 | > 10000 | > 10000 | – | – | > 10000 | – | IC50 [1, 27]: > 10 µM |
| COc1ccc(S(=O)(=O)n2cc(C(=O)c3ccc(F)cc3)nc2-c2ccc(N(C)C)cc2)cc1 [12gba, (2-(4-(dimethylamino)phenyl)-1-((4-methoxyphenyl)sulfonyl)-1H-imidazol-4-yl)(4-fluorophenyl)methanone] | 63.4 | 73.2 | 44.1 | ~100 | ~100 | 129 | ~100 | – |
| COc1cc(C(=O)c2c[nH]c(-c3ccc(Br)cc3)n2)cc(OC)c1OC [12la, (2-(4-bromophenyl)-1H-imidazol-4-yl)(3,4,5-trimethoxyphenyl)methanone] | 33 | 34 | 36 | 32 | 74 | 49 | 36 | – |
| COc1cc(C(=O)c2c[nH]c(-c3ccc(C(F)(F)F)cc3)n2)cc(OC)c1OC [12pa, (2-(4-(trifluoromethyl)phenyl)-1H-imidazol-4-yl)(3,4,5-trimethoxyphenyl)methanone] | 110 | 134 | 127 | 163 | 469 | 174 | 175 | – |
| O=C(c1cc(O)c(O)c(O)c1)c1c[nH]c(-c2cc(O)c(O)c(O)c2)n1 [13ea, (3,4,5-trihydroxyphenyl)(2-(3,4,5-trihydroxyphenyl)-1H-imidazol-4-yl)methanone] | > 10000 | > 10000 | > 10000 | > 10000 | > 10000 | > 10000 | > 10000 | – |
| O=C(c1cc(O)c(O)c(O)c1)c1c[nH]c(-c2ccc(Cl)cc2)n1 [13fa, (2-(4-chlorophenyl)-1H-imidazol-4-yl)(3,4,5-trihydroxyphenyl)methanone] | > 10000 | 10000 | 10000 | – | – | 10000 | – | IC50 [1, 27]: 3.89 µM |
| COc1cc(C(=O)c2c[nH]c(-c3ccc4[nH]c(C(=O)c5cc(OC)c(OC)c(OC)c5)cc4c3)n2)cc(OC)c1OC [15xaa, (5-(4-(3,4,5-Trimethoxybenzoyl)-1H-imidazol-2-yl)-1H-indol-2-yl)(3,4,5-trimethoxyphenyl)methanone] | – | – | – | – | – | – | – | IC50 [2, 28]: 1800 nM; IC50 [3, 29]: 1390 nM; IC50 [4, 30]: 5920 nM; IC50 [5, 31]: 4580 nM; IC50 [8, 32]: 1700 nM; IC50 ([6]; read-out: IC50 (nM), LNCaP): 1070 nM; IC50 [7, 33]: 2630 nM |
| COc1cc(C(=O)c2cn(S(=O)(=O)c3ccccc3)c(-c3ccc4c(c3)cc(C(=O)c3cc(OC)c(OC)c(OC)c3)n4S(=O)(=O)c3ccccc3)n2)cc(OC)c1OC [16xaa, (1-(Phenylsulfonyl)-2-(1-(phenylsulfonyl)-2-(3,4,5-trimethoxybenzoyl)-1H-indol-5-yl)-1H-imidazol-4-yl)(3,4,5-trimethoxyphenyl)methanone] | – | – | – | – | – | – | – | IC50 [2, 28]: > 10000 nM; IC50 [3, 29]: > 10000 nM; IC50 [4, 30]: > 10000 nM; IC50 [5, 31]: > 10000 nM; IC50 [8, 32]: > 10000 nM; IC50 ([6]; read-out: IC50 (nM), LNCaP): > 10000 nM; IC50 [7, 33]: > 10000 nM |
| O=C(c1csc(-c2cc3ccccc3[nH]2)n1)c1cc2ccccc2[nH]1 [compound 8, (2-(1H-Indol-2-yl)thiazol-4-yl)(1H-indol-2-yl)methanone] | – | – | – | – | – | – | – | IC50 [2, 34]: 318 nM; IC50 [3, 35]: 570 nM; IC50 [4, 30]: 580 nM; IC50 [5, 31]: 230 nM; IC50 [8, 36]: 404 nM; IC50 ([6]; read-out: IC50 (nM), LNCaP): 346 nM; IC50 [7, 33]: 704 nM |
| COc1cc(C(=NC#N)c2csc(-c3ccccc3)n2)cc(OC)c1O [compound 32, N-((4-hydroxy-3,5-dimethoxyphenyl)(2-phenylthiazol-4-yl)methylene)cyanamide] | – | – | – | – | – | – | – | IC50 [2, 34]: 2700 nM; IC50 [3, 35]: > 10000 nM; IC50 [4, 30]: 4600 nM; IC50 [5, 31]: 1170 nM; IC50 [8, 36]: 2600 nM; IC50 ([6]; read-out: IC50 (nM), LNCaP): 1660 nM; IC50 [7, 33]: 2290 nM |
